# Laboratory results reported in patent US20080103198A1, “METHODS FOR TREATMENT OF COCHLEAR AND VESTIBULAR DISORDERS” (priority 2006, published 2008).
# Values joined by “and” are separate entries in the source; they are usually repeats but may differ in a detail not shown here. Equal values may be shown once.
# What was measured:
# [1] = test system: Li-Pilo SE; experiment: Lithium-pilocarpine model (Example 2): quantification of cell densities; assay type: in vivo, rat; conditions: for number of neuronal cell bodies, Dorsal entorhinal, layer II / number of neuronal cell bodies, Dorsal entorhinal, layer III / number of neuronal cell bodies, Piriform, layer II, dorsal / number of neuronal cell bodies, Piriform, layer II, ventral / number of neuronal cell bodies, Piriform, layer III / number of neuronal cell bodies, Ventral entorhinal, layer II / number of neuronal cell bodies, Ventral entorhinal, layers III-IV / number of neuronal cell bodies, hippocampus CA1 area / number of neuronal cell bodies, hippocampus CA3 area / number of neuronal cell bodies, hippocampus Hilus: mean ± S.E.M.
# Procedure: Quantification of cell densities was performed at two times after SE: a first group was studied 14 days after SE and was composed by 7 DZP, 8 RWJ30, 11 RWJ60, 10 RWJ90, 8 RWJ120 and 8 control rats not subjected to SE. A second group used for the study of the latency to SRS was sacrificed either 8 weeks after the first SRS or at 5 months when no SRS could be seen in that delay and was composed by 7 DZP, 2 RWJ30, 3 RWJ60, 3 RWJ90, 4 RWJ120 rats. Animals were deeply anesthetized with 1.8 g/kg pentobarbital (Dolethal®, Vétoquinol, Lure, France). Brains were then removed and frozen. Serial 20 μm slices were cut in a cryostat, air-dried during several days before thionine staining. Quantification of cell densities was performed with a 10×10 boxes 1 cm^2 microscopic grid on coronal sections according to the stereotaxic coordinates of the rat brain atlas (Paxinos and Watson, 1986, The Rat Brain in Stereotaxic coordinates, 2nd ed. Academic Press, San Diego). The grid of counting was placed on a well-defined area of the cerebral structure of interest and counting was carried out with a microscopic enlargement of 200- or 400-fold defined for each single cerebral structure. Cell counts were performed twice on each side of three adjacent sections for each region by a single observer unaware of the animal's treatment. The number of cells obtained in the 12 counted fields in each cerebral structure was averaged. This procedure was used to minimize the potential errors that could result from double counting leading to overestimation of cell numbers. […] Counts involved only neurons with cell bodies larger than 10 μm. Cells with small cell bodies were considered as glial cells and were not counted.
# For neuronal damage, statistical analysis between groups was performed by means of a one-way analysis of variance followed by a post-hoc Scheffe's test using the Statview software.
# [2] = test system: Li-Pilo SE; experiment: Lithium-pilocarpine model (Example 2): mortality and latency to SRS; assay type: in vivo, rat; design: degree of mortality: concentration or dose not given beside the values; conditions: for mortality over the first 48 h after SE: early cell counting group; for degree of mortality: latency to SRS / late cell counting group
# Procedure: The model induced in rats by pilocarpine associated with lithium (Li-Pilo) reproduces most of the clinical and neurophysiological features of human temporal lobe epilepsy (See, Turski et al., 1989; Synapse 3:154-171; Cavalheiro, 1995, Ital J Neurol Sci 16:33-37). In adult rats, the systemic administration of pilocarpine leads to SE that may last for up to 24 h. The lethality rate reaches 30-50% during the first days. In the surviving animals, neuronal damage predominates within the hippocampal formation, the piriform and entorhinal cortices, thalamus, amygdaloid complex, neocortex and substantia nigra.
# In the present study, we tested the effects of different doses of various doses of test compound, i.e. 30, 60, 90 and 120 mg/kg (referred to herein as RWJ30, RWJ60, RWJ90 and RWJ120) using the same design as in the previous study. The treatment was started one hour after the onset of status epilepticus (SE) and the animals were treated with a second injection of the same dose of the drug. This early treatment of SE was followed by a 6 day test compound treatment. This report concerns the effects of the four different doses of test compound on neuronal damage in hippocampus and parahippocampal cortices. The study on the latency to the onset of epilepsy is still incomplete but we will show the data we have got at present which have been performed on a limited group of animals. The latency to spontaneous epileptic seizures was correlated on the same rats to the number of neurons remaining in the areas involved in the circuit of seizures.
# Adult male Sprague-Dawley rats provided by Janvier Breeding Center (Le Genest-St-Isle, France) were housed under controlled, uncrowded standard conditions at 20-22° C. (light/dark cycle, 7.00 a.m.-7.00 p.m. lights on), with food and water available ad libitum. All animal experimentation was performed in accordance with the rules of the European Communities Council Directive of Nov. 24, 1986 (86/609/EEC), and the French Department of Agriculture (License No 67-97).
# All rats received lithium chloride (3 meq/kg, i.p., Sigma, St Louis, Mo., U.S.A.) and about 20 h later, all animals received also methylscopolamine bromide (1 mg/kg, s.c., Sigma) that was administered to limit the peripheral effects of the convulsant. SE was induced by injecting pilocarpine hydrochloride (25 mg/kg, s.c., Sigma) 30 min after methylscopolamine. The effects of increasing doses of test compound (RWJ) were studied in 5 groups of rats. The animals received either 2.5 mg/kg diazepam, i.m., (DZP), or 30, 60, 90 or 120 mg/kg of test compound (RWJ30, RWJ60, RWJ90, RWJ120), i.p., at 1 h after the onset of SE. The control group received vehicle instead of pilocarpine and test compound. The rats surviving SE were then injected about 10 h after the first test compound injection with a second i.p. injection of 1.25 mg/kg DZP for the DZP group or of the same dose of test compound as in the morning and were maintained under a twice daily test compound treatment for 6 additional days (s.c.) while DZP rats received a vehicle injection. The effects of the four doses of test compound on the latency to occurrence of spontaneous recurrent seizures (SRS) were investigated by daily video recording of the animals for 10 h per day.
# [3] = 14 days after SE, RWJ30 = 30 mg/kg
# [4] = 14 days after SE, RWJ60 = 60 mg/kg
# [5] = 14 days after SE, RWJ90 = 90 mg/kg
# [6] = 14 days after SE, RWJ120 = 120 mg/kg
# [7] = 14 days after SE, DZP 2.5 mg/kg i.m.
# [8] = DZP vs control rats, 14 days after SE
smiles,measurement,setting,value
NC(=O)OC[C@@H](O)c1ccccc1Cl [test compound],"damage, piriform cortex ventral layer II",[1]; 60 mg/kg,56%
same,"cell loss, piriform cortex layer III",[1]; 120 mg/kg,21%
same,"damage, piriform cortex ventral layer II",[1]; 120 mg/kg,9%
same,neuroprotection in CA3 pyramidal layer,"[1]; 120 mg/kg, difference with DZP not significant",tendency to a slight neuroprotection
same,neuroprotection in all layers of the dorsal entorhinal cortex,[1]; 30 and 60 mg/kg,did not afford any neuroprotection
same,"damage, piriform cortex dorsal layer II",[1]; 60-120 mg/kg,4-21%
same,"cell loss, piriform cortex layer III",[1]; 60 and 90 mg/kg (two lower of the 60-120 mg/kg doses),53-64%
same,"cell losses, ventral entorhinal cortex layers III/IV",[1]; 90 and 120 mg/kg,18-21%
same,"damage remaining, entorhinal cortex dorsal layers II and III/IV and ventral layer II",[1]; 90 and 120 mg/kg,4-14%
same,"number of neuronal cell bodies, Dorsal entorhinal, layer II",[1]; [3],23.4 ± 0.8
same,"number of neuronal cell bodies, Dorsal entorhinal, layer III",[1]; [3],21.5 ± 1.3
same,"number of neuronal cell bodies, Piriform, layer II, dorsal",[1]; [3],15.7 ± 3.6
same,"number of neuronal cell bodies, Piriform, layer II, ventral",[1]; [3],7.2 ± 4.6
same,"number of neuronal cell bodies, Piriform, layer III",[1]; [3],1.8 ± 2.3
same,"number of neuronal cell bodies, Ventral entorhinal, layer II",[1]; [3],22.7 ± 1.2
same,"number of neuronal cell bodies, Ventral entorhinal, layers III-IV",[1]; [3],13.2 ± 2.5
same,"number of neuronal cell bodies, hippocampus CA1 area",[1]; [3],39.3 ± 5.0°°
same,"number of neuronal cell bodies, hippocampus CA3 area",[1]; [3],35.7 ± 1.4
same,"number of neuronal cell bodies, hippocampus Hilus",[1]; [3],33.0 ± 4.0
same,"number of neuronal cell bodies, Dorsal entorhinal, layer II",[1]; [4],24.1 ± 0.7
same,"number of neuronal cell bodies, Dorsal entorhinal, layer III",[1]; [4],24.0 ± 0.4
same,"number of neuronal cell bodies, Piriform, layer II, dorsal",[1]; [4],28.9 ± 2.7°°
same,"number of neuronal cell bodies, Piriform, layer II, ventral",[1]; [4],14.8 ± 5.9
same,"number of neuronal cell bodies, Piriform, layer III",[1]; [4],6.9 ± 2.9
same,"number of neuronal cell bodies, Ventral entorhinal, layer II",[1]; [4],23.1 ± 0.7
same,"number of neuronal cell bodies, Ventral entorhinal, layers III-IV",[1]; [4],17.8 ± 2.8
same,"number of neuronal cell bodies, hippocampus CA1 area",[1]; [4],31.9 ± 4.4
same,"number of neuronal cell bodies, hippocampus CA3 area",[1]; [4],31.6 ± 2.1
same,"number of neuronal cell bodies, hippocampus Hilus",[1]; [4],32.8 ± 5.4
same,"number of neuronal cell bodies, Dorsal entorhinal, layer II",[1]; [5],26.3 ± 0.9
same,"number of neuronal cell bodies, Dorsal entorhinal, layer III",[1]; [5],25.4 ± 1.3
same,"number of neuronal cell bodies, Piriform, layer II, dorsal",[1]; [5],32.4 ± 1.3°
same,"number of neuronal cell bodies, Piriform, layer II, ventral",[1]; [5],18.4 ± 5.1
same,"number of neuronal cell bodies, Piriform, layer III",[1]; [5],9.0 ± 4.1
same,"number of neuronal cell bodies, Ventral entorhinal, layer II",[1]; [5],26.7 ± 0.9°°
same,"number of neuronal cell bodies, Ventral entorhinal, layers III-IV",[1]; [5],23.7 ± 1.7°
same,"number of neuronal cell bodies, hippocampus CA1 area",[1]; [5],47.7 ± 5.4°
same,"number of neuronal cell bodies, hippocampus CA3 area",[1]; [5],35.1 ± 1.0
same,"number of neuronal cell bodies, hippocampus Hilus",[1]; [5],37.5 ± 5.2**°
same,"number of neuronal cell bodies, Dorsal entorhinal, layer II",[1]; [6],27.3 ± 0.5
same,"number of neuronal cell bodies, Dorsal entorhinal, layer III",[1]; [6],26.4 ± 0.9
same,"number of neuronal cell bodies, Piriform, layer II, dorsal",[1]; [6],35.2 ± 1.3°
same,"number of neuronal cell bodies, Piriform, layer II, ventral",[1]; [6],30.5 ± 1.5°
same,"number of neuronal cell bodies, Piriform, layer III",[1]; [6],15.0 ± 2.5°°
same,"number of neuronal cell bodies, Ventral entorhinal, layer II",[1]; [6],25.1 ± 0.7
same,"number of neuronal cell bodies, Ventral entorhinal, layers III-IV",[1]; [6],24.5 ± 1.6°
same,"number of neuronal cell bodies, hippocampus CA1 area",[1]; [6],65.5 ± 2.9°
same,"number of neuronal cell bodies, hippocampus CA3 area",[1]; [6],39.8 ± 1.5
same,"number of neuronal cell bodies, hippocampus Hilus",[1]; [6],44.8 ± 3.6
same,"damage, hilus of dentate gyrus","[1]; RWJ30, 60 and 90 groups, 14 days after SE",62-66%
same,"cell loss, CA1 pyramidal layer","[1]; RWJ30, 60 or 90 rats, 14 days after SE",36-57%
same,neuroprotection in piriform cortex,[1]; RWJ30 dose,did not protect any layer
same,"cell loss, CA1 pyramidal layer","[1]; RWJ120, 14 days after SE",13%
same,"damage, hilus of dentate gyrus","[1]; RWJ120, 14 days after SE",54%
same,"damage, piriform cortex ventral layer II",[1]; second dose of 'the 60 and 120 mg/kg RWJ dose' as printed,45%
same,"latency to spontaneous seizures, individual rats","[2]; 30 mg/kg, two rats",8 days and 9 days
same,"first spontaneous seizure after SE, individual rats","[2]; 60 mg/kg, 3 rats",7 days and 8 days and 38 days
same,"first spontaneous seizure after SE, individual rats","[2]; 90 mg/kg, 3 rats",9 days and 10 days and 51 days
same,"first spontaneous seizure after SE, individual rats","[2]; 120 mg/kg, 2/4 rats with prolonged latency",79 days and 44 days
same,recording time following SE without any seizure,"[2]; 120 mg/kg, the two other rats",> 5 months
same,mortality over the first 48 h after SE,[2]; RWJ30 (30 mg/kg i.p.),43%
same,mortality over the first 48 h after SE,[2]; RWJ60 (60 mg/kg i.p.),0%
same,mortality over the first 48 h after SE,[2]; RWJ90 (90 mg/kg i.p.),0%
same,mortality over the first 48 h after SE,[2]; RWJ120 (120 mg/kg i.p.),47%
same,degree of mortality,[2]; RWJ30,50%
same,degree of mortality,[2]; RWJ60,0%
same,degree of mortality,[2]; RWJ90,0%
same,degree of mortality,[2]; RWJ120,0%
"CN1C(=O)CN=C(c2ccccc2)c2cc(Cl)ccc21 [DZP, diazepam, reference compound]","number of neuronal cell bodies, Dorsal entorhinal, layer II",[1]; [7],23.5 ± 0.7
same,"number of neuronal cell bodies, Dorsal entorhinal, layer III",[1]; [7],22.3 ± 0.5
same,"number of neuronal cell bodies, Piriform, layer II, dorsal",[1]; [7],12.6 ± 4.2
same,"number of neuronal cell bodies, Piriform, layer II, ventral",[1]; [7],3.6 ± 0.7
same,"number of neuronal cell bodies, Piriform, layer III",[1]; [7],1.2 ± 1.2
same,"number of neuronal cell bodies, Ventral entorhinal, layer II",[1]; [7],21.7 ± 1.3
same,"number of neuronal cell bodies, Ventral entorhinal, layers III-IV",[1]; [7],7.7 ± 2.3
same,"number of neuronal cell bodies, hippocampus CA1 area",[1]; [7],10.9 ± 1.9
same,"number of neuronal cell bodies, hippocampus CA3 area",[1]; [7],31.3 ± 2.9
same,"number of neuronal cell bodies, hippocampus Hilus",[1]; [7],33.5 ± 3.0
same,"damage, entorhinal cortex dorsal layers II and III/IV and ventral layer II",[1]; DZP group,18-24%
same,"cell loss, CA1 pyramidal cell layer",[1]; [8],85%
same,"cell loss, CA3",[1]; [8],40%
same,"cell loss, hilus of dentate gyrus",[1]; [8],66%
same,"cell loss, piriform cortex dorsal layer II",[1]; [8],66%
same,"cell loss, piriform cortex layer III",[1]; [8],94%
same,"cell loss, piriform cortex ventral layer II",[1]; [8],89%
same,"damage, dorsal entorhinal cortex layer II",[1]; [8],18%
same,"damage, dorsal entorhinal cortex layers III-IV",[1]; [8],24%
same,"damage, ventral entorhinal cortex layer II",[1]; [8],22%
same,"damage, ventral entorhinal cortex layers III/IV",[1]; [8],74%
same,latency to spontaneous seizures (mean),"[2]; DZP group, 7 rats",18 ± 8 days
same,mortality over the first 48 h after SE,[2]; DZP 2.5 mg/kg i.m.,47%
same,degree of mortality,[2]; DZP,30%
